Data from EP0927045B1, “TUMOR HOMING MOLECULES, […] THEREFROM, AND METHODS OF USING SAME” (The Burnham Institute, priority 1996, dated 1998).
Read-outs that look alike come from different tables or passages of the source. Where no end group is shown, it is not given here.

Assays:
[1] = test system: MDA-MB-435 breast carcinoma; assay: Tumor therapy with doxorubicin/peptide conjugates in tumor bearing mice; type: in vivo, Balb c nu/nu mice; conditions: for effect on tumor growth: relative to treatment with the vehicle, alone
Protocol: Female 2-month old Balb c nu/nu mice (Harlan Sprague Dawley; San Diego CA) were used for these studies and were cared for according to the Burnham Institute animal facility guidelines. […] Tumors were allowed to grow to a size of about 1 cm^3 (about 5% of the mouse's body weight) before starting the treatment experiments, except for the toxicity experiments as discussed below.
Weekly doxorubicin/peptide conjugate or control treatments (5 µg/mouse/week of doxorubicin-equivalent) were administered intravenously. In some experiments, as indicated, a dose of 30 µg/mouse was administered every 3 weeks. Treatment with doxorubicin, alone, is referred to as "dox control" and treatment with doxorubicin conjugated to the non-tumor homing control peptide, […] As an additional control, in some experiments the tumor homing peptide was mixed with doxorubicin, without linking, and the mixture was administered to tumor bearing mice. Such treatment produced results that were not statistically different from those obtained with the above described dox controls.
Mice were anesthetized with a tribromoethanol-based anesthetic mixture (AVERTIN; Papaioannou and Fox, Lab. Anim. 43:189-192 (1993)) before each treatment. Anesthetization facilitated the tail vein injections (final volume, 200 µl) and allowed precise serial three dimensional tumor size measurements. Tumor volume calculations were based on the equation for the volume of an ovaloid: V=4/3(nabc), where a, b, and c are 1/2 of the measured diameters in each of the three dimensions.

[2] = test system: MDA-MB-435 human breast carcinoma cells; type: cell-based; conditions: for cell killing: agents not removed after 30 min, after 24 hr
Protocol: (§1) (SEQ ID NO: 1) conjugate, or the doxorubicin/[sequence] (SEQ ID NO: 19; control) conjugate (0.1 to 10 µg/well of doxorubicin-equivalent) for either 30 min or overnight. Following incubation, the agents were removed by extensive washing with PBS, then fresh medium added and incubation was continued. The number of surviving cells was determined at 24 hours with crystal violet staining (see Koivunen et al., supra, 1994).

[3] = test system: MDA-MB-435 human breast carcinoma cells; assay: In vitro characterization of cytotoxicity, crystal violet staining; type: cell-based
Protocol: as §1

[4] = Acute toxicity in mice bearing extremely large tumors; type: in vivo; conditions: 200 µg/mouse; tumors about 25% of body weight
Protocol: Acute toxicity studies also were performed.

[5] = test system: breast tumor; assay: Viability of tumor cells plated from tumors of treated mice; type: in vivo; conditions: 30 pg equivalent iv, tumors removed five days after treatment, cell numbers 24 hours and 7 days after plating
Excerpt: In addition, the viability of tumor cells obtained from tumors of mice treated with a tumor homing peptide/doxorubicin conjugate was compared to that of tumors from mice treated with free doxorubicin. In these experiments, breast tumor bearing mice were size matched with regard to the tumors, then treated intravenously with 30 pg equivalent of doxorubicin/[…] (SEQ ID NO: 1) or of free doxorubicin. Five days after treatment, the mice were euthanized and the tumors were removed. The tumor pairs were weighed and ground and the cell suspensions were plated (2 g tumor tissue per 150 mm plate).
Cell numbers were determined at 24 hours and 7 days after plating. Viability of tumor cells from the tumors of mice receiving the doxorubicin/[…] (SEQ ID NO: 1) conjugate was about 3 fold less than cells from tumors of mice treated with the free doxorubicin.

[6] = Acute toxicity in mice bearing extremely large tumors; type: in vivo; conditions: 200 µg/mouse; tumors about 25% of body weight; remark: listed apart in the source
Protocol: Acute toxicity studies also were performed. […] (SEQ ID NO: 1) conjugate. All of the mice treated with the doxorubicin/[…]

[7] = test system: Human 435 breast carcinoma; assay: In vivo targeting of phage to a tumor, phage in organs quantitated; design: species or system nude mice
Protocol: When the tumors attained a diameter of about 1 cm, phage expressing a specific RGD-containing peptide were administered to the tumor bearing mouse. Similar results TABLE 1
1 x 10^9 phage expressing the RGD-containing peptide, […] (SEQ ID NO: 1; see, Koivunen et al., supra, 1995) or control (insertless) phage were injected intravenously (iv) into the mice and allowed to circulate for 4 min. The mice then were snap frozen or perfused through the heart while under anesthesia, and various organs, including tumor, brain and kidney, were removed and the phage present in the organs was quantitated (see U.S. Patent No. 5,622,699; Pasqualini and Ruoslahti, supra, 1996).

[8] = test system: human Kaposi's sarcoma; assay: In vivo targeting of phage to a tumor; design: species or system mice; conditions: human Kaposi's sarcoma xenograft
Protocol: Since the αvβ3 integrin is expressed by endothelial cells in angiogenic vasculature, experiments were performed to determine whether tumor vasculature that is undergoing angiogenesis can be targeted in vivo using methods as disclosed herein. Phage expressing the peptide, […] (SEQ ID NO: 1; see, Koivunen et al., supra, 1995), which is known to bind to the αvβ3 integrin, were injected into mice bearing tumors formed from human breast carcinoma cells, mouse melanoma cells or human Kaposi's sarcoma cells (see Example IV). The […] […] For example, in mice bearing tumors formed by implantation of human breast carcinoma cells, a twenty-to eighty-fold greater number of the […] (SEQ ID NO: 1) phage, as compared to unselected control phage, accumulated in the tumor.

[9] = 5 µg/mouse/week doxorubicin-equivalent
[10] = 5 µg/mouse/week doxorubicin-equivalent iv
[11] = exposure 30 min, then agents removed, 0.1 to 10 µg/well doxorubicin-equivalent, surviving cells at 24 hours
[12] = 5 µg/mouse/week doxorubicin-equivalent iv, at necropsy, t test p<0.0001

For “doxorubicin/GACVFSIAHECGA: doxorubicin conjugated to the non-tumor homing control peptide, GACVFSIAHECGA (SEQ ID NO: 19) (cysteine pairing not given here; also: doxorubicin conjugated) [reference compound]”, the “gross examination: skin ulceration and tumor necrosis” value (from here on “gross examination”) [1, 9] was “no such signs were observed”, the “treatment results compared with dox control” value [1, 10] was “not significantly different” and the “effect on tumor growth” value [1] was “essentially no effect on tumor growth”. For the same molecule, the cell death [2] was “cell death was present only in the cultures treated with the doxorubicin/[…]” and the cell killing [2] was “killed”.
For `COc1cccc2c1C(=O)c1c(O)c3c(c(O)c1C2=O)C[C@@](O)(C(=O)CO)C[C@@H]3O[C@H]1C[C@H](N)[C@H](O)[C@H](C)O1` [doxorubicin], the cell killing ([3]; agents not removed after 30 min, after 24 hr) was “killed”, the cell death [3, 11] was “cell death was present only in the cultures treated with the doxorubicin/CDCRGDCFC” and the “gross examination” value ([1]; 5 µg/mouse/week doxorubicin equivalent) was “no such signs were observed”. For the same molecule, the “effect on tumor growth” value [1] was “essentially no effect on tumor growth” and the “time to death after treatment” value [4] was at most 48 h.
In the case of “doxorubicin/CDCRGDCFC: CDCRGDCFC (SEQ ID NO: 1) coupled to doxorubicin using EDC and NHS (cysteine pairing not given here; also: doxorubicin coupled via EDC/NHS)”, the “gross examination” value [1, 9] is reported as “marked skin ulceration and tumor necrosis”, the “survival compared with dox control and conjugate control” value [1, 10] is reported as “survived beyond the time when the dox control and conjugate control mice had died” and the “tumor size compared with controls” value [1, 10] is reported as “significantly smaller tumors”. The “pulmonary metastasis compared with dox control” value [1, 12] was “a lower incidence of pulmonary metastasis and fewer metastatic lesions”, the “spread to regional lymph nodes compared with dox control” value [1, 12] was “less spread to regional lymph nodes” and the “time alive after the dox control and conjugate control mice had died” value ([1]; dose escalation: 30 µg/mouse every three weeks for three cycles) was “more than 6 months”. For the same molecule, the “histopathological analysis of tumor vasculature compared with dox control” value ([1]; mouse, in vivo) was “pronounced destruction of the vasculature”, the “viability of tumor cells relative to cells from tumors of mice treated with free doxorubicin” value [5] was “about 3 fold less” and the cell killing [2] was “killed”. The cell death [2, 11] was “cell death was present” and the survival after treatment [6] was “survived for longer than one week”.
In the case of CLSGSLSC, the “selective homing of phage to the tumor” value [7] is reported as “also homed” and the “selective homing of phage to the tumor” value [8] is reported as “also homed”.
